Test results as given in patent US8716292B2, “Riminophenazines with 2-(heteroaryl)amino substituents and their anti-microbial activity” (priority 2010, dated 2014).
In brackets after ≈: the same amount, converted by molar mass.

System: Mycobacterium tuberculosis H37Rv strains
Assay: In vitro assay for antimicrobial susceptibility (microplate Alamar blue MIC)
Format: cell-based
Conditions: Mycobacterium tuberculosis, H37RV, in vitro, Mycobacterium tuberculosis H37Rv strains; read-out: MIC (μg/mL) against H37Rv

Which MIC does the source give for `CC(C)/N=c1\cc2n(-c3ccccc3)c3ccccc3nc-2cc1Nc1cccnc1` [TBI-054, 5-Phenyl-3-(1-methyethyl)imino-2-(3-pyridyl)amino-3,5-dihydrophenazine] here?
Its MIC is 0.03 µg/mL (≈ 0.074 µM).

Which MIC does the source give for `CN1CCC(/N=c2\cc3n(-c4ccccc4)c4ccccc4nc-3cc2Nc2cccnc2)CC1` [TBI-055, 5-Phenyl-3-(N-methyl-4-piperidyl)imino-2-(3-pyridyl)amino-3,5-dihydrophenazine] here?
Its MIC is 0.5 µg/mL (≈ 1.09 µM).

`c1ccc(-n2c3c/c(=N\CCN4CCOCC4)c(Nc4cccnc4)cc-3nc3ccccc32)cc1` [TBI-056, 5-Phenyl-3-(2-morpholinoethyl)imino-2-(3-pyridyl)amino-3,5-dihydrophenazine] was tested. Which MIC did it give?
Its MIC is 0.25 µg/mL (≈ 0.525 µM).

With `CC(C)CN1CCC(/N=c2\cc3n(-c4ccccc4)c4ccccc4nc-3cc2Nc2cccnc2)CC1` [TBI-057, 5-phenyl-3-(N-isobutyl-4-piperidyl)imino-2-(3-pyridyl)amino-3,5-dihydrophenazine] as the molecule, how does the MIC read?
The MIC was 0.125 µg/mL (≈ 0.249 µM).

With `c1ccc(-n2c3c/c(=N\C4CCOCC4)c(Nc4cccnc4)cc-3nc3ccccc32)cc1` [TBI-058, 5-Phenyl-3-(4-tetrahydropyranyl)imino-2-(3-pyridyl)amino-3,5-dihydrophenazine] as the molecule, how does the MIC read?
The MIC was 0.06 µg/mL (≈ 0.134 µM).

`COC1CCC(/N=c2\cc3n(-c4ccccc4)c4ccccc4nc-3cc2Nc2cccnc2)CC1` (stereo not shown) [TBI-059, 5-Phenyl-3-(4-methoxycyclohexyl)imino-2-(3-pyridyl)amino-3,5-dihydrophenazine] was tested. Which MIC did it give?
The MIC was 0.125 µg/mL (≈ 0.263 µM).

For `c1ccc(-n2c3c/c(=N\C4CCN(C5CCCC5)CC4)c(Nc4cccnc4)cc-3nc3ccccc32)cc1` [TBI-060, 5-Phenyl-3-(N-cyclopentyl-4-piperidyl)imino-2-(3-pyridyl)amino-3,5-dihydrophenazine], which MIC is on record?
The MIC was 1 µg/mL (≈ 1.94 µM).

How did the MIC turn out when `COc1ncccc1Nc1cc2nc3ccccc3n(-c3ccccc3)c-2c/c1=N\C(C)C` [TBI-061, 5-Phenyl-3-(1-methylethyl)imino-2-(2-methoxy-3-pyridyl)amino-3,5-dihydrophenazine] was run?
The MIC was 0.06 µg/mL (≈ 0.138 µM).

Which MIC does the source give for `COc1ncccc1Nc1cc2nc3ccccc3n(-c3ccccc3)c-2c/c1=N\C1CCN(C)CC1` [TBI-062, 5-Phenyl-3-(N-methyl-4-piperidyl)imino-2-(2-methoxy-3-pyridyl)amino-3,5-dihydrophenazine] here?
Its MIC is 0.061 µg/mL (≈ 0.124 µM).

For `COc1ncccc1Nc1cc2nc3ccccc3n(-c3ccccc3)c-2c/c1=N\C1CCC(OC)CC1` (stereo not shown) [TBI-063, 5-Phenyl-3-(4-methoxycyclohexyl)imino-2-(2-methoxy-3-pyridyl)amino-3,5-dihydrophenazine], which MIC is on record?
The MIC was 0.06 µg/mL (≈ 0.119 µM).

`COc1ncccc1Nc1cc2nc3ccccc3n(-c3ccccc3)c-2c/c1=N\C1CCN(CC(C)C)CC1` [TBI-064, 5-Phenyl-3-(N-isobutyl-4-piperidyl)imino-2-(2-methoxy-3-pyridyl)amino-3,5-dihydrophenazine] was tested. Which MIC did it give?
Its MIC is 0.057 µg/mL (≈ 0.107 µM).

How did the MIC turn out when `COc1ncccc1Nc1cc2nc3ccccc3n(-c3ccccc3)c-2c/c1=N\CCN1CCOCC1` [TBI-065, 5-Phenyl-3-(2-morpholinoethyl)imino-2-(2-methoxy-3-pyridyl)amino-3,5-dihydrophenazine] was run?
The MIC was 0.08 µg/mL (≈ 0.158 µM).

`COc1ncccc1Nc1cc2nc3ccccc3n(-c3ccccc3)c-2c/c1=N\C1CCOCC1` [TBI-066, 5-Phenyl-3-(4-tetrahydropyranyl)imino-2-(2-methoxy-3-pyridyl)amino-3,5-dihydrophenazine] was tested. Which MIC did it give?
The MIC was 0.026 µg/mL (≈ 0.0544 µM).

Which MIC does the source give for `Cc1ccc(Nc2cc3nc4ccccc4n(-c4ccccc4)c-3c/c2=N\C(C)C)cn1` [TBI-067, 5-Phenyl-3-(1-methylethyl)imino-2-(6-methyl-3-pyridyl)amino-3,5-dihydrophenazine] here?
The MIC was 0.048 µg/mL (≈ 0.114 µM).

With `Cc1ccc(Nc2cc3nc4ccccc4n(-c4ccccc4)c-3c/c2=N\C2CCN(CC(C)C)CC2)cn1` [TBI-068, 5-Phenyl-3-(N-isobutyl-4-piperidyl)imino-2-(6-methyl-3-pyridyl)amino-3,5-dihydrophenazine] as the molecule, how does the MIC read?
The MIC was 0.156 µg/mL (≈ 0.302 µM).

Which MIC does the source give for `Cc1ccc(Nc2cc3nc4ccccc4n(-c4ccccc4)c-3c/c2=N\C2CCN(C)CC2)cn1` [TBI-069, 5-Phenyl-3-(N-methyl-4-piperidyl)imino-2-(6-methyl-3-pyridyl)amino-3,5-dihydrophenazine] here?
Its MIC is 0.219 µg/mL (≈ 0.461 µM).
